Assay results reported in patent US4937232A, “Inhibition of protein kinase C by long-chain bases” (priority 1988, dated 1990).
Like-named read-outs stand apart in the source and are kept apart here.

Tests used:
human neutrophils = assay: [32P]-phosphate incorporation into TCA-precipitable material of neutrophils; format: cell-based
Experimental: Neutrophils (1.4×10^8 cells) were preincubated in with 0.5 mCi Na2 H^32 PO4 in buffer containing […] NaCl, 5.56 mM glucose, 10 mM Hepes, and 0.33 mM CaCl2 for a total of 1 hr at 37° C. in a shaking waterbath. Excess unbound counts were removed by centrifugation and resuspension, repeated five times. The cells were then divided into 4 treatment groups (see RESULTS below) containing approximately 3.5×10^7 cells each. All groups were incubated at 37° C. in a shaking waterbath for the same total time. Some samples were incubated 10 min. with sphinganine (40 μM) prior to addition of 1 μM PMA (final concentration), with which they were incubated for an additional 15 min. The reaction was stopped by addition of an equal volume of boiling SDS dissociation buffer (9% SDS, 1% mercaptoethanol, 15% glycerol, 30 mM Tris, pH 7.8). The samples were run on a 12% SDS-polyacrylamide gel using the method of Rudolph and Krueger (Adv. Cyclic Nucleotide Res. 101, 107-133, 1979). The gels were dried using a Bio-Rad model 2400 Gel Slab Dryer. Autoradiography was performed on the dried gels using Kodak X-omat X-ray film and Dupont Cronex intensifying screens. The gels were exposed for 12 hrs at -70° C.
Alternatively, neutrophils were preincubated as described above using 0.1 mCi of ^32 P labeled phosphate. The cells were broken by 5 min. of sonication using an Ultramet III waterbath sonicator, and 5% (final concentration) trichloroacetic acid was added to each sample. […] The precipitate was filtered and washed extensively using an Amicon filtration system and counted using a Beckman LS7000 scintillation counter.

Y-1 tumor cell line = assay: ACTH stimulation of steroidogenesis in the Y-1 tumor cell line; format: cell-based; conditions: unpublished studies
[1] = system: Ca++/calmodulin-dependent protein kinase; assay: Phosphorylation of the 20K protein in platelets; format: cell-based; conditions: concentrations which completely abolished phosphorylation of the 40K protein
[2] = HL-60 cell growth and viability; format: cell-based, human; conditions: human, hl-60 cells, 24 h; for viability at 24 h, 2.5 µM: 2.5 μM sphinganine; for viability at 24 h, 5 µM: 5 μM sphinganine
Experimental: (§1) The HL-60 cells (obtained from the American Type Culture Collection, ATCC CCL240) were grown at 37° as a suspension culture in 175 cm^2 Nunc tissue culture flasks (Vangard International, Neptune, N.J.). The cells were subcultured at a density of 0.25×10^6 cells/ml and used between passage numbers 30 and 40.
(§2) Cells were centrifuged at 600 g for 3 min, and added at 1×10^5 cells per well in 12-well culture dishes. Medium, PMA, and long-chain bases (prepared as the 1:1 molar complex with fatty acid-free bovine serum albumin) at the indicated concentrations were added for a total volume of 2.0 ml. After the desired times, the cells in suspension were counted and checked for viability (trypan blue exclusion) with a hemacytometer. The attached cells were quantitated by measuring DNA content according to the method of West et al (Anal. Biochem., 147, 289-295, 1985) and by assaying for acid phosphatase according to the method of Schnyder (J. Exp. Med., 148, 434-445, 1978).

HL-60 cells = assay: HL-60 cell growth and viability; format: cell-based, human
Experimental: as §1, §2

human platelets = assay: [3H]PDBu binding to human platelets
Experimental: Human platelets, prepared as described above, were suspended at a concentration of 2.5×10^8 platelet/ml. 50 μl of the platelets were then incubated for five minutes with the indicated concentration of sphingosine in Eppendorf microfuge tubes. Sphingosine was prepared in 50% ethanol at a concentration 100-fold the final concentration so that ethanol was kept at 0.5%. [^3 H]PDBu was added to 10 nM and incubated with the platelets at 37° for 10 minutes. The samples were then filtered on Whatman GF/C filters pre-washed with 5 ml of modified Tyrode's buffer containing 0.1% bovine serum albumin, washed with 10 ml of the same buffer, dried, and counted in 10 ml of Aquasol II in an LKB beta counter. Non-specific binding was determined in the presence of 1 μM unlabelled PDBu and subtracted from the total counts to yield the specific binding.

protein kinase M = assay: Activity of the catalytic domain (protein kinase M); format: biochemical, rat
Experimental: Under these conditions, the bulk concentration of PS was 260 μM and diC18:1 was 86 μM. Therefore, 50% inhibition (100 μM) occurred on a molar basis equivalent to [diC18:1 ] or to 0.4 of [PS]. The potency of sphingosine inhibition was markedly affected by the number of Triton X-100 mixed micelles containing 7 mol % PS and 1 mol % diC18:1present in the assay (FIG. 11A). Thus, the effect of sphingosine was subject to surface dilution. When the data are expressed as mol %, (sphingosine:Triton X-100), sphingosine inhibition at four different levels of Triton X-100 mixed micelles (containing PS and diC18:1) was identical (FIG. 11B) implying that it is the number of sphingosine molecules present in each mixed micelle that determines the potency and not the absolute concentration. For surface active amphipathic molecules, the expression of inhibitor potencies must be relative to the amount of surface (micelles in this case) as bulk concentrations are misleading. […] To test this hypothesis, the catalytic domain (protein kinase M) was generated by proteolysis of protein kinase C^2. The activity of this catalytic domain which is independent of Ca^2+, phospholipid and DAG/phorbol esters was not inhibited by sphingosine (FIG. 10).
^2 The catalytic domain was generated by trypsin treatment of purified protein kinase C; and purified by Ultrogel AcA-44 molecular sieve chromatography. […]

[3] = 8 nM PMA, read-out: Percent viability of suspended cells
[4] = No PMA, read-out: Percent viability of suspended cells

Row | SMILES | [32P]-phosphate incorporation into TCA-precipitable material (human neutrophils; PMA (1 μM) plus Sa (25 μM)) [COUNTS PER MINUTE] | [32P]-phosphate incorporation into TCA-precipitable material (human neutrophils; Sa (25 μM)) [COUNTS PER MINUTE] | effect on the ACTH-stimulated steroidogenic rate (Y-1 tumor cell line) | inhibition of phosphorylation of the 20K protein in platelets [1] | viability at 24 h, 1 µM ([2]; 8 nM PMA + 1 μM sphinganine, read-out: % Viability) [%] | viability at 24 h, 1 µM ([2]; 8 nM PMA, 1 μM sphinganine, read-out: Percent viability of suspended cells) [%] | viability at 24 h, 2.5 µM [2, 3] [%] | viability at 24 h, 5 µM [2, 3] [%] | viability at 24 h, 1 µM ([2]; 1 μM sphinganine, no PMA, read-out: % Viability) [%] | viability at 24 h, 1 µM ([2]; No PMA, 1 μM sphinganine, read-out: Percent viability of suspended cells) [%] | viability at 24 h, 2.5 µM [2, 4] [%] | viability at 24 h, 5 µM [2, 4] [%] | HL-60 cell growth (doubling) (HL-60 cells; 1 μM sphinganine, first 24 h) | HL-60 cytotoxicity (HL-60 cells; 5 μM sphinganine, second day) | HL-60 cell growth (HL-60 cells; 1 and 2.5 μM sphinganine, second day) | HL-60 cell growth (HL-60 cells; 2.5 and 5 μM sphinganine, first 24 h) | inhibition of [3H]PDBu binding to whole human platelets (human platelets) | inhibition of the catalytic domain (protein kinase M) (protein kinase M)
1 | CCCCCCCCCCCCCCC[C@@H](O)[C@@H](N)CO (relative stereo) [Sphinganine, erythro-dihydrosphingosine] | 2845 | 2506 | did not affect | lack of inhibition | 93 | 87 | 94 | 80 | 95 | 90 | 98 | 87 | not changed | significant cell death | inhibited growth without cytotoxicity | limited growth | – | –
2 | CCCCCCCCCCCCC/C=C/[C@@H](O)[C@@H](N)CO [sphingosine] | – | – | – | – | – | – | – | – | – | – | – | – | – | – | – | – | able to inhibit this binding | not inhibited
